Experimental data reported in patent US5817818A, “Androstenones” (Glaxo Wellcome Inc., priority 1996, dated 1998).

Columns and labels:
[1] = test system: bovine adrenal 3β-hydroxy-Δ^5 -steroid dehydrogenase/3-keto-Δ^5 -steroid isomerase (3BHSD); settings: cited from earlier work
[2] = test system: porcine granulosa cell 3β-hydroxy-Δ^5 -steroid dehydrogenase/3-keto-Δ^5 -steroid isomerase (3BHSD); settings: cited from earlier work
[3] = target: T1, human type 1 5α-reductase (Homo sapiens, UniProt P18405); assay: Inhibition of human type 1 steroid 5α-reductase (microsomes; testosterone to DHT conversion); format: biochemical; settings: 10 min preincubation, pH 7.0, 100 nM testosterone, 10-120 min, 1 mM NADPH; read-out: IC50 Human Type 1 5AR
T1 construct: made in house; host or cells: Sf9 insect cells, recombinant baculovirus; microsomes
T1 sequence (P18405 1-259): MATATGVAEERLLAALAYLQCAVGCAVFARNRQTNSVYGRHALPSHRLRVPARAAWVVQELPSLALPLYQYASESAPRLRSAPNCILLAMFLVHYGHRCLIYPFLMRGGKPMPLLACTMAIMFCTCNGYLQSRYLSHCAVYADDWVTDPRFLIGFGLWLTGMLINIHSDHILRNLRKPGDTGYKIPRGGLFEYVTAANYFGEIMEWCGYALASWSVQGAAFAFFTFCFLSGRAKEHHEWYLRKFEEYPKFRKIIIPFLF
Method: (§1) Enzyme activities may be determined using microsomes derived from: 1) prostate tissue from benign prostatic hyperplasia (BPH) patients; 2) recombinant baculovirus infected SF9 cells that express human type 1 5α-reductase; or 3) recombinant baculovirus infected SF9 cells that express human type 2 5α-reductase. Microsomes were prepared by homogenization of the tissue or cells, followed by differential centrifugation of the homogenate. Microsome extracts were incubated with varying concentrations of [1,2,6,7-^3 H]-testosterone, 1 mM NADPH, and varying amounts of the compounds of formula (I,) i.e. a test compound, in buffer containing a NADPH regenerating system capable of maintaining NADPH concentrations for a period of time within the range 0.5-240 minutes. Corresponding incubations were carried out with no test compound as a control study.
(§2) For type 1 IC50 measurements, assay components except testosterone were preincubated for 10 minutes at pH 7.0, and following the addition of 100 nM testosterone the assays were allowed to proceed for 10-120 minutes. For type 2 IC50 measurements, assay components except testosterone were preincubated for 20 minutes at pH 6.0, and following the addition of 8 nM testosterone the assays were allowed to proceed for 20-40 minutes. The percentage of conversion of testosterone to DHT in the presence of test compounds compared to the corresponding conversion in the control study was estimated using high performance liquid chromatography (HPLC) with radiochemical detection.

[4] = target: T2, human type 2 5α-reductase (Homo sapiens, UniProt P31213); assay: Inhibition of human type 2 steroid 5α-reductase (microsomes; testosterone to DHT conversion); format: biochemical; settings: 20 min preincubation, pH 6.0, 8 nM testosterone, 20-40 min, 1 mM NADPH; read-out: IC50 Human Type 2 5AR
T2 construct: made in house; host or cells: Sf9 insect cells, recombinant baculovirus; microsomes
T2 sequence (P31213 1-254): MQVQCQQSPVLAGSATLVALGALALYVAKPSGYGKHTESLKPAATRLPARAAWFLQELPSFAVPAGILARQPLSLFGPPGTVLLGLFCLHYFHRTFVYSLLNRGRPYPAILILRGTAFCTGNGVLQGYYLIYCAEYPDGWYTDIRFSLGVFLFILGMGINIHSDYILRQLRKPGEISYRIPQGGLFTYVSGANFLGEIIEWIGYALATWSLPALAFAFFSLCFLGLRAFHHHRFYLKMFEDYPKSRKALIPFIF
Method: as §1, §2

[5] = target: T3, Human Adrenal 3BHSD (Homo sapiens, UniProt P26439); assay: Inhibition of human adrenal 3β-hydroxy-Δ^5-steroid dehydrogenase/3-keto-Δ^5-steroid isomerase (3BHSD) (microsomes; DHEA to androstenedione conversion); format: biochemical; settings: 1 mM NAD+, pH 7.5, 1 to 60 minutes
T3 construct: microsomes derived from human adrenal tissues; from tissue; host or cells: human adrenal tissue, microsomes
T3 sequence (P26439 1-372): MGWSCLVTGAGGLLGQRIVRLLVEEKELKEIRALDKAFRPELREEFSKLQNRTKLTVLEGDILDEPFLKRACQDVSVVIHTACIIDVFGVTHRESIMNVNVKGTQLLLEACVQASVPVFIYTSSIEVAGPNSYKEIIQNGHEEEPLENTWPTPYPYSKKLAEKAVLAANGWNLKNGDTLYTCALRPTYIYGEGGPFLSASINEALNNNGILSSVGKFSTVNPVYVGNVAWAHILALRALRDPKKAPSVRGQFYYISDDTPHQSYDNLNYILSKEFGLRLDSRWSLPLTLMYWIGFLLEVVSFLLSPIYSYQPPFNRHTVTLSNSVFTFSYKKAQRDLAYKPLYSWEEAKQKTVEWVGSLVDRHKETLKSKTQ
Method: Enzyme activities are measured using microsomes derived from human adrenal tissues. Microsomes were prepared by homogenization of the tissue followed by differential centrifugation of the homogenate. Microsome extracts were incubated with varying concentrations of dehydroepiandrosterone (DHEA), 1 mM NAD+, and varying amounts of the compounds of Formula (I), i.e. a test compound, in pH 7.5 buffer for a period of time within the range of 1 to 60 minutes. Corresponding incubations were carried out with no test compound as a control study. The percentage of conversion of DHEA to androstenedione in the presence of test compounds compared to the corresponding conversion in the control study was estimated using HPLC with radiochemical detection.

Structure (SMILES)	inhibition of bovine adrenal 3BHSD [1]	inhibition of porcine granulosa cell 3BHSD [2]	IC50 [3] [µM]	IC50 [4] [µM]	Ki [5] [µM]
CCN(CC)C(=O)[C@H]1CC[C@H]2[C@@H]3CC[C@H]4N(C)C(=O)CC[C@]4(C)[C@H]3CC[C@]12C [Compound 4-MA]	potent inhibition	potent inhibition			
CCC1(CC)CC1(NC(=O)[C@H]1CC[C@H]2[C@@H]3CC[C@H]4NC(=O)C=C[C@]4(C)[C@H]3CC[C@]12C)c1ccc(-c2ccccc2)cc1 (stereo partly drawn) [Compound 21, 17β-N-1-(4-Biphenyl)-2,2-diethylcyclopropylcarbamoyl-4-aza-5α-androst-1-en-3-one]			< 0.001	< 0.001	> 1
C[C@]12CCC(=O)N[C@@H]1CC[C@@H]1[C@@H]2CC[C@]2(C)[C@@H](C(=O)Nc3cc(C(F)(F)F)ccc3C(F)(F)F)CC[C@@H]12 [Compound 22, 17β-N-(2,5-bis(Trifluoromethyl))phenylcarbamoyl-4-aza-5α-androstan-3-one]			0.001 to 0.01	< 0.001	> 1
CN1C(=O)CC[C@]2(C)[C@H]3CC[C@]4(C)[C@@H](C(=O)Nc5cc(C(F)(F)F)ccc5C(F)(F)F)CC[C@H]4[C@@H]3CC[C@@H]12 [Compound 23, 17β-N-(2,5-bis(Trifluoromethyl))phenylcarbamoyl-4-methyl-4-aza-5α-androstan-3-one]			< 0.001	< 0.001	0.01 to 10
CC(C)(C)c1ccc(C(F)(F)F)cc1NC(=O)[C@H]1CC[C@H]2[C@@H]3CC[C@H]4NC(=O)C=C[C@]4(C)[C@H]3CC[C@]12C [Compound 24, 17β-N-(2-t-Butyl-5-trifluoromethyl)phenylcarbamoyl-4-aza-5α-androst-1-en-3-one]			0.001 to 0.01	< 0.001	> 1
CC(C)(C)c1ccc(C(F)(F)F)cc1NC(=O)[C@H]1CC[C@H]2[C@@H]3CC[C@H]4NC(=O)CC[C@]4(C)[C@H]3CC[C@]12C [Compound 25, 17β-N-(2-t-Butyl-5-trifluoromethyl)phenylcarbamoyl-4-aza-5α-androstan-3-one]			0.001 to 0.01	< 0.001	> 1
CN1C(=O)CC[C@]2(C)[C@H]3CC[C@]4(C)[C@@H](C(=O)Nc5cc(C(F)(F)F)ccc5C(C)(C)C)CC[C@H]4[C@@H]3CC[C@@H]12 [Compound 26, 17β-N-(2-t-Butyl-5-trifluoromethyl)phenylcarbamoyl-4-methyl-4-aza-5α-androstan-3-one]			< 0.001	< 0.001	0.01 to 10
CC(C)(C)c1ccc(C(C)(C)C)c(NC(=O)[C@H]2CC[C@H]3[C@@H]4CC[C@H]5NC(=O)C=C[C@]5(C)[C@H]4CC[C@]23C)c1 [Compound 27, 17β-N-(2,5-Di-t-butyl)phenylcarbamoyl-4-aza-5α-androst-1-en-3-one]			0.001 to 0.01	< 0.001	0.01 to 10
CC(C)(C)c1ccc(C(C)(C)C)c(NC(=O)[C@H]2CC[C@H]3[C@@H]4CC[C@H]5NC(=O)CC[C@]5(C)[C@H]4CC[C@]23C)c1 [Compound 28, 17β-N-(2,5-Di-t-butyl)phenylcarbamoyl-4-aza-5α-androstan-3-one]			0.001 to 0.01	< 0.001	> 1
CN1C(=O)CC[C@]2(C)[C@H]3CC[C@]4(C)[C@@H](C(=O)Nc5cc(C(C)(C)C)ccc5C(C)(C)C)CC[C@H]4[C@@H]3CC[C@@H]12 [Compound 29, 17β-N-(2,5-Di-t-butyl)phenylcarbamoyl-4-methyl-4-aza-5α-androstan-3-one]			< 0.001	< 0.001	0.01 to 10
C[C@H]1C[C@H]2NC(=O)C=C[C@]2(C)[C@H]2CC[C@]3(C)[C@@H](C(=O)Nc4cc(C(F)(F)F)ccc4C(F)(F)F)CC[C@H]3[C@H]12 [Compound 30, 17β-N-(2,5-bis(Trifluoromethyl))phenylcarbamoyl-4-aza-7β-methyl-5α-androst-1-en-3-one]			0.001 to 0.01	0.001 to 0.01	> 1
C[C@H]1C[C@H]2NC(=O)C=C[C@]2(C)[C@H]2CC[C@]3(C)[C@@H](C(=O)Nc4cc(C(F)(F)F)ccc4C(C)(C)C)CC[C@H]3[C@H]12 [Compound 31, 17β-N-(2-t-Butyl-5-trifluoromethyl)phenylcarbamoyl-4-aza-7β-methyl-5α-androst-1-en-3-one]			0.001 to 0.01	0.001 to 0.01	> 1
C[C@H]1C[C@H]2NC(=O)C=C[C@]2(C)[C@H]2CC[C@]3(C)[C@@H](C(=O)NC4(c5ccc(Cl)cc5)CCCC4)CC[C@H]3[C@H]12 [Compound 32, 17β-N-1-(4-Chlorophenyl)cyclopentylcarbamoyl-4-aza-7β-methyl-5α-androst-1-en-3-one]			0.001 to 0.01	< 0.001	> 1
CC(C)(C)c1ccc(C2(NC(=O)[C@H]3CC[C@H]4[C@@H]5CC[C@H]6NC(=O)C=C[C@]6(C)[C@H]5CC[C@]34C)C3CCCC2CCC3)cc1 (stereo partly drawn) [Compound 33, 17β-N-9-(4-t-Butylphenyl)bicyclo[3.3.1]nonylcarbamoyl-4-aza-5α-androst-1-en-3-one]			0.001 to 0.01	< 0.001	> 1
